From patent US20240376094A2, “SELECTIVE BCL-XL PROTAC COMPOUNDS AND METHODS OF USE” (Les Laboratoires Servier, priority 2021, published 2024)

Legend:
Format in all cases: cell-based
Bcl-xL = target: T1, Bcl-xL (Homo sapiens, UniProt Q07817); assay: HCT116 Bcl-xL degradation, capillary-based immunoassay (WES); conditions: for DC50: HCT116, 24 h, 9-point serial dilution; for remaining activity at 0.01 µM / remaining activity at 0.1 µM: HCT-116, 24 h, % of untreated cells; for remaining activity at 0.01 µM: HCT116, 10 nM; for remaining activity at 0.1 µM: HCT116, 100 nM
T1 construct: Measured levels of Bcl-xL protein of HCT116 cells treated with the tested compounds; host or cells: HCT116
T1 sequence (Q07817 whole entry): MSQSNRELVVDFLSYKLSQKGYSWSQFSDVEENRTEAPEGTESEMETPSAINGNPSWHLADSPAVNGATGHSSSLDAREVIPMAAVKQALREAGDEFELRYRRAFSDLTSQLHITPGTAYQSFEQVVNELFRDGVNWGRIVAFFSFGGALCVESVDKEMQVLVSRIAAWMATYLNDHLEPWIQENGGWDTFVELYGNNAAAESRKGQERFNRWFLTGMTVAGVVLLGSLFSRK
Outline: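 Bcl-xL protein level by capillary WES immunoassay in HCT116 lysates, as % of untreated after cofilin normalization. Compound exposure was 24 h at 10 and 100 nM and/or a 9-point series, in quadruplicate. Four-parameter fitting gave the DC50.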

MOLT-4 cells [1] = assay: MOLT-4 cell viability, CTG assay; conditions: Homo sapiens, MOLT-4, 48 h
Outline: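 Viability read as total ATP luminescence (CTG) after 48 h compound treatment, 11 points at 5-fold spacing in triplicate, cells in RPMI 1640/10% FBS. IC50 is the concentration halving signal relative to control, four-parameter fit, averaged over at least 2 experiments.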

MOLT-4 cells [2] = assay: MOLT-4 cell viability, MTT assay; conditions: Homo sapiens, MOLT-4, 48 h
Excerpt: The MTT colorimetric assay is based on the mitochondrial reduction of tetrazolium salt by living cells. The viable cell number is proportional to the production of formazan salts, which can be read spectrophotometrically at 540 nm. The CTG luminescent assay (CellTiter GLO, Promega) is based on a reagent which lyses cells and measures total adenosine triphosphate (ATP) content. The viable cell number is proportional to the production of ATP.
MOLT-4 cells were purchased from ATCC and cultivated in RPMI 1640 supplemented with 10% heat inactivated fetal bovine serum, penicillin (100 IU/mi), streptomycin (100 μg/ml) and L-glutamine (2 mM). Cells were cultured at 37° C. in a humidified atmosphere containing 5% […].
For MTT assay, cells were seeded in 96 microwell plates (150 μL per well) and exposed to the compounds for 48 h (3.16 fold serially diluted; 9 concentrations each, triplicates). At the end of incubation time, 15 μL of MTT solution (5 mg/ml) were added per well and the cells were incubated for another 4 h. Then, 100 μL of 10% Sodium Dodecyl Sulfate (SDS)/HCl 10 mM were added per well and the plate was incubated overnight, before measurement of optical density at 540 nm.
IC50, were calculated using standard four-parametric curve fitting. IC50 is defined as the compound concentration at which the MTT or CTG signal is reduced to 50% of that measured for the control. Results shown in Table 14 represent the mean of at least 2 independent experiments.

SMILES | DC50 (Bcl-xL) [µM] | remaining activity at 0.01 µM (Bcl-xL) [%] | remaining activity at 0.1 µM (Bcl-xL) [%] | IC50 (MOLT-4 cells [1]) [µM] | IC50 (MOLT-4 cells [2]) [µM]
Cc1c(Nc2nc3ccccc3s2)nnc2c1CCCN2c1ccc(-c2cnn(CC34CC5(C)CC(C)(C3)CC(OCCN(C)CCOCCOCCOCCNc3cccc6c3C(=O)N(C3CCC(=O)NC3=O)C6=O)(C5)C4)c2C)c(C(=O)O)n1 (stereo not drawn) [Example 11, 6-[3-(1,3-benzothiazol-2-ylamino)-4-methyl-6,7-dihydro-5H-pyrido[2,3-c]pyridazin-8-yl]-3-[1-[[3-[2-[2-[2-[2-[2-[[2-(2,6-dioxo-3-piperidyl)-1,3-dioxo-isoindolin-4-yl]amino]ethoxy]ethoxy]ethoxy]ethyl-methyl-amino]ethoxy]-5,7-dimethyl-1-adamantyl]methyl]-5-methyl-pyrazol-4-yl]pyridine-2-carboxylic acid] | – | 83 | 60 | 0.0203 | 0.00429
Cc1c(Nc2nc3ccccc3s2)nnc2c1CCCN2c1ccc(-c2cnn(CC34CC5(C)CC(C)(C3)CC(OCCN(C)CCOCCOCCNc3cccc6c3C(=O)N(C3CCC(=O)NC3=O)C6=O)(C5)C4)c2C)c(C(=O)O)n1 (stereo not drawn) [Example 12, 6-[3-(1,3-benzothiazol-2-ylamino)-4-methyl-6,7-dihydro-5H-pyrido[2,3-c]pyridazin-8-yl]-3-[1-[[3-[2-[2-[2-[2-[[2-(2,6-dioxo-3-piperidyl)-1,3-dioxo-isoindolin-4-yl]amino]ethoxy]ethoxy]ethyl-methyl-amino]ethoxy]-5,7-dimethyl-1-adamantyl]methyl]-5-methyl-pyrazol-4-yl]pyridine-2-carboxylic acid] | – | 69 | 69 | 0.0199 | 0.00949
Cc1c(Nc2nc3ccccc3s2)nnc2c1CCCN2c1ccc(-c2cnn(CC34CC5(C)CC(C)(C3)CC(OCCN(C)CCOCCOCCOCCOCCOCCNc3cccc6c3C(=O)N(C3CCC(=O)NC3=O)C6=O)(C5)C4)c2C)c(C(=O)O)n1 (stereo not drawn) [Example 13, 6-[3-(1,3-benzothiazol-2-ylamino)-4-methyl-6,7-dihydro-5H-pyrido[2,3-c]pyridazin-8-yl]-3-[1-[[3-[2-[2-[2-[2-[2-[2-[2-[[2-(2,6-dioxo-3-piperidyl)-1,3-dioxo-isoindolin-4-yl]amino]ethoxy]ethoxy]ethoxy]ethoxy]ethoxy]ethyl-methyl-amino]ethoxy]-5,7-dimethyl-1-adamantyl]methyl]-5-methyl-pyrazol-4-yl]pyridine-2-carboxylic acid] | – | 79 | 57 | 0.0339 | 0.0135
Cc1cc(N(CCCCCn2cc(CCCCCCCNC(=O)COc3cccc4c3C(=O)N(C3CCC(=O)NC3=O)C4=O)nn2)c2ccc(-c3cnn(CC45CC6(C)CC(C)(C4)CC(OCCN(C)C)(C6)C5)c3C)c(C(=O)O)n2)nnc1Nc1nc2ccccc2s1 (stereo not drawn) [Example 64, 6-[[6-(1,3-benzothiazol-2-ylamino)-5-methyl-pyridazin-3-yl]-[5-[4-[7-[[2-[2-(2,6-dioxo-3-piperidyl)-1,3-dioxo-isoindolin-4-yl]oxyacetyl]amino]heptyl]triazol-1-yl]pentyl]amino]-3-[1-[[3-[2-(dimethylamino)ethoxy]-5,7-dimethyl-1-adamantyl]methyl]-5-methyl-pyrazol-4-yl]pyridine-2-carboxylic acid] | 0.0462 | 59 | 40 | 0.118 | 0.0928
Cc1cc(N(CCCCCn2cc(COCCOCCNC(=O)COc3cccc4c3C(=O)N(C3CCC(=O)NC3=O)C4=O)nn2)c2ccc(-c3cnn(CC45CC6(C)CC(C)(C4)CC(OCCN(C)C)(C6)C5)c3C)c(C(=O)O)n2)nnc1Nc1nc2ccccc2s1 (stereo not drawn) [Example 65, 6-[[6-(1,3-benzothiazol-2-ylamino)-5-methyl-pyridazin-3-yl]-[5-[4-[2-[2-[[2-[2-(2,6-dioxo-3-piperidyl)-1,3-dioxo-isoindolin-4-yl]oxyacetyl]amino]ethoxy]ethoxymethyl]triazol-1-yl]pentyl]amino]-3-[1-[[3-[2-(dimethylamino)ethoxy]-5,7-dimethyl-1-adamantyl]methyl]-5-methyl-pyrazol-4-yl]pyridine-2-carboxylic acid] | – | 90 | 78 | 0.14 | 0.156

Now from value to molecule:

DC50 (Bcl-xL) [µM] | remaining activity at 0.01 µM (Bcl-xL) [%] | remaining activity at 0.1 µM (Bcl-xL) [%] | IC50 (MOLT-4 cells [1]) [µM] | IC50 (MOLT-4 cells [2]) [µM] | SMILES
0.0105 | 61 | 41 | 0.0129 | 0.00521 | Cc1c(Nc2nc3ccccc3s2)nnc2c1CCCN2c1ccc(-c2cnn(CC34CC5(C)CC(C)(C3)CC(OCCN(C)CCOCCNc3cccc6c3C(=O)N(C3CCC(=O)NC3=O)C6=O)(C5)C4)c2C)c(C(=O)O)n1 (stereo not drawn) [Example 9, 6-[3-(1,3-benzothiazol-2-ylamino)-4-methyl-6,7-dihydro-5H-pyrido[2,3-c]pyridazin-8-yl]-3-[1-[[3-[2-[2-[2-[[2-(2,6-dioxo-3-piperidyl)-1,3-dioxo-isoindolin-4-yl]amino]ethoxy]ethyl-methyl-amino]ethoxy]-5,7-dimethyl-1-adamantyl]methyl]-5-methyl-pyrazol-4-yl]pyridine-2-carboxylic acid]
– | 81 | 86 | 0.00351 | 0.00115 | Cc1c(Nc2nc3ccccc3s2)nnc2c1CCCN2c1ccc(-c2cnn(CC34CC5(C)CC(C)(C3)CC(OCCN(C)CCCCCCOc3ccc6c(c3)C(=O)N(C3CCC(=O)NC3=O)C6=O)(C5)C4)c2C)c(C(=O)O)n1 (stereo not drawn) [Example 14, 6-[3-(1,3-benzothiazol-2-ylamino)-4-methyl-6,7-dihydro-5H-pyrido[2,3-c]pyridazin-8-yl]-3-[1-[[3-[2-[6-[2-(2,6-dioxo-3-piperidyl)-1,3-dioxo-isoindolin-5-yl]oxyhexyl-methyl-amino]ethoxy]-5,7-dimethyl-1-adamantyl]methyl]-5-methyl-pyrazol-4-yl]pyridine-2-carboxylic acid]
– | 73 | 35 | 0.0236 | 0.0115 | Cc1ncsc1-c1ccc(CNC(=O)[C@@H]2C[C@@H](O)CN2C(=O)[C@@H](NC(=O)CCC(=O)N2CCN(CC#Cc3ccc(OCCCc4sc(N5CCCc6c5nnc(Nc5nc7ccccc7s5)c6C)nc4C(=O)O)c(F)c3)CC2)C(C)(C)C)cc1 [Example 21, 2-[3-(1,3-benzothiazol-2-ylamino)-4-methyl-6,7-dihydro-5H-pyrido[2,3-c]pyridazin-8-yl]-5-[3-[2-fluoro-4-[3-[4-[4-[[(1S)-1-[(2S,4R)-4-hydroxy-2-[[4-(4-methylthiazol-5-yl)phenyl]methylcarbamoyl]pyrrolidine-1-carbonyl]-2,2-dimethyl-propyl]amino]-4-oxo-butanoyl]piperazin-1-yl]prop-1-ynyl]phenoxy]propyl]thiazole-4-carboxylic acid]
– | 64 | 67 | 1.63 | 0.875 | CNCC#Cc1ccc(OCCCc2sc(N(CCCc3cn(CCOCCOCCOCCOCCOCCC(=O)N[C@H](C(=O)N4C[C@H](O)C[C@H]4C(=O)NCc4ccc(-c5scnc5C)cc4)C(C)(C)C)nn3)c3cc(C)c(Nc4nc5ccccc5s4)nn3)nc2C(=O)O)c(F)c1 [Example 29, 2-[[6-(1,3-benzothiazol-2-ylamino)-5-methyl-pyridazin-3-yl]-[3-[1-[2-[2-[2-[2-[2-[3-[[(1S)-1-[(2S,4R)-4-hydroxy-2-[[4-(4-methylthiazol-5-yl)phenyl]methylcarbamoyl]pyrrolidine-1-carbonyl]-2,2-dimethyl-propyl]amino]-3-oxo-propoxy]ethoxy]ethoxy]ethoxy]ethoxy]ethyl]triazol-4-yl]propyl]amino]-5-[3-[2-fluoro-4-[3-(methylamino)prop-1-ynyl]phenoxy]propyl]thiazole-4-carboxylic acid]
– | 118 | 73 | 0.477 | 0.133 | CNCC#Cc1ccc(OCCCc2sc(N(CCCc3cn(CCCCCCCCNC(=O)COc4cccc5c4C(=O)N(C4CCC(=O)NC4=O)C5=O)nn3)c3cc(C)c(Nc4nc5ccccc5s4)nn3)nc2C(=O)O)c(F)c1 (stereo not drawn) [Example 30, 2-[[6-(1,3-benzothiazol-2-ylamino)-5-methyl-pyridazin-3-yl]-[3-[1-[8-[[2-[2-(2,6-dioxo-3-piperidyl)-1,3-dioxo-isoindolin-4-yl]oxyacetyl]amino]octyl]triazol-4-yl]propyl]amino]-5-[3-[2-fluoro-4-[3-(methylamino)prop-1-ynyl]phenoxy]propyl]thiazole-4-carboxylic acid]
